We go through 38 molecules from US4469701A, “Pyrrolid-3-en-2-ones and pharmaceutical methods of use thereof” (Stauffer Chemical Company, priority 1983, dated 1984).

Like-named read-outs stand apart in the source and are kept apart here. Some results are limits rather than exact numbers.

The subject of data set [1] is mice. The data set is described as follows: Antiarrhythmic: chloroform-induced cardiac arrhythmia in mice. It is filed as in vivo, mouse. The note with it: for ED100: Mus musculus, ip, read-out: ED-100, antiarrhythmic; for A = Antiarrythmic: mouse hearts fibrillating (of 3): 15 min. after a 200 mg/kg intraperitoneal dose, significance <2. The procedure: ^2 A = Antiarrythmic. Less than 2/3 mouse hearts fibrillating 15 min.

Data set [2] deals with spontaneously hypertensive rats (SHR). The data set is described as follows: Antihypertensive: blood pressure (tail cuff) in spontaneously hypertensive rats (SHR). It is filed as in vivo, rat. The note with it: for ED100 / inhibition in vivo at 100 mg/kg: Rattus norvegicus; for ED100: po, read-out: ED-100, antihypertensive; for inhibition in vivo at 100 mg/kg: 6 hr. after a 100 mg/kg oral dose, significance >10, read-out: Antihypertensive: percent decrease in systolic blood pressure in spontaneously hypertensive rats. Here is the method:
Blood pressure was measured indirectly (tail cuff) in unanesthetized, unheated spontaneously hypertensive rats (SHR) before and 2, 4, and 6 hours after p.o. dosing. Reduction in mean pressure by more than 10% (>10) at any two consecutive measurement times after dosing indicates antihypertensive activity.

Data set [3] has as its system mice. The data set can be described thus: Central anticholinergic: oxotremorine tremors in mice. The note with it: Mus musculus, ip, 1 h, read-out: ED-100, central anticholinergic.
Text: No tremor equals 0, mild tremor equals 1 and strong tremor equals 2. Maximum score--3 mice×2 equals 6. Scores less than 4 (<4) indicate activity.
Data set [4] concerns rats. The data set is described as follows: Bradycardia: heart rate by EKG in rats. In kind it is in vivo, rat. The conditions noted are these: for ED100 / inhibition in vivo at 5 mg/kg: Rattus norvegicus; for ED100: po, rats, reference compounds, read-out: ED-100, bradycardia; for inhibition in vivo at 5 mg/kg: 0.75 h, 45 min. after a 5 mg/kg oral dose in rats, significance >10, read-out: B = Bradycardiac: percent decrease in heart rate. The procedure:
[…] Decrease in heart rate by more than 10% (>10) is considered a bradycardic effect.
Percent decrease in heart rate 45 min. after a 5
mg/kg oral dose in rats.

Data set [5] concerns rats. The data set is described as follows: Antiulcer: stress induced gastric ulcers in rats. It is filed as in vivo, rat. The conditions noted are these: for ED100 / inhibition in vivo at 50 mg/kg: Rattus norvegicus; for ED100: po, read-out: ED-100, antiulcer; for inhibition in vivo at 50 mg/kg: 4 hr. following a 50 mg/kg oral dose in rats, significance >60, read-out: U = Antiulcerative: percent inhibition of stress ulcers; for Antiulcer effect, in words: rat, in vivo. The procedure: Fasted rats were dosed, p.o., 30 minutes before immobilization in wire mesh and partial immersion in water for 4 hours. Inhibition of the resulting stress induced gastric ulcers by more than 60% (>60) indicates activity.
^6 U = Antiulcerative. Percent inhibition of stress ulcers 4 hr.
following a 50 mg/kg oral dose in rats.

The test system of data set [6] is mice. The data set can be described thus: Acute toxicity / autonomic effects observation. The note with it: mouse, in vivo. The procedure:
Mice were dosed at 300 mg/kg, per oral (p.o.) and […], interperitoneal (i.p.) for observation of any acute toxic symptoms or autonomic effects during the subsequent 72 hours. If none were noted, pharmacological evaluation proceeded employing doses and concentrations for each test based on appropriate multiples of doses required by suitable reference compounds. If acute toxicity was observed initially, the minimal toxic dose was determined and pharmacological screening doses were reduced proportionately.

The test system of data set [7] is hypercholesterolemic mice. The data set can be described thus: Hypocholesterolemic: serum cholesterol in hypercholesterolemic mice. The note with it: Mus musculus, hypercholesterolemic mice; for inhibition in vivo at 200 mg/kg: 2 oral doses of 200 mg/kg 20 hr. apart, significance >20, read-out: C = Hypocholesterolemic: percent decrease in serum cholesterol. It is filed as in vivo, mouse. The procedure: Mice made hypercholesterolemic by being fed a high cholesterol-cholic acid diet for 7 days were dosed on the sixth and seventh days, p.o. After fasting overnight, reduction in serum cholesterol concentration by more than 15% (>15) from hypercholesterolemic control mice indicates activity.
^4 C = Hypocholesterolemic. Percent decrease in serum cholesterol in
hypercholesterolemic mice given 2 oral doses of 200 mg/kg drug candidate

Consider `COC(=O)C1=C(C)NC(C)=C(C(=O)OC)C1c1ccccc1[N+](=O)[O-]` [nifedipine, reference compound], for which the ED100 is 25 mg/kg in data set [1] (mice, reference compounds) and 50 mg/kg in data set [2] (SHR, reference compounds).
As for `CN(C)CCCN1c2ccccc2CCc2ccccc21` [imipramine], in data set [3], the ED100 was 25 mg/kg.
Consider `COC(=O)[C@H]1[C@H]2C[C@@H]3c4[nH]c5cc(OC)ccc5c4CCN3C[C@H]2C[C@@H](OC(=O)c2cc(OC)c(OC)c(OC)c2)[C@@H]1OC` [reserpine, reference compound], for which the ED100 in data set [4] worked out at 5 mg/kg; in data set [2] (SHR, reference compounds) it was 25 mg/kg.
Take `CNC1=Nc2ccc(Cl)cc2C(c2ccccc2)=[N+]([O-])C1` [chlordiazepoxide, reference compound]: in data set [5], the ED100 amounted to 100 mg/kg.
Regarding `N[C@@H]1C[C@H]1c1ccccc1` (relative stereo) [tranylcypromine], the ED100 in data set [3] is greater than 25 mg/kg.
Regarding `C[C@H](CS)C(=O)N1CCC[C@H]1C(=O)O` [captopril, reference compound], the ED100 in data set [2] (SHR, reference compounds) is 100 mg/kg.
Take `CC(C)NCC(O)COc1cccc2ccccc12` (stereo not shown) [propranolol, reference compound]: the ED100 in data set [1] and in data set [4] was 40 mg/kg throughout.
With `NC(=S)Cc1ccccn1` [pyridyl-2-thioacetamide, reference compound], the “ED-100, antiulcer” value in data set [5] (p.o., rats, reference compounds) worked out at 50 mg/kg.
For `CC1(C)CCCC(C)(C)N1CC1=CC(=O)N(c2cccc([N+](=O)[O-])c2)C1` [Compound 11], the “Autonomic effect / autonomic inhibition” value in data set [6] was “absence”. In addition, in data set [7], the inhibition in vivo at 200 mg/kg is 0%. Moreover, the “A = Antiarrythmic: mouse hearts fibrillating (of 3)” value (shortened to “A = Antiarrythmic”) in data set [1] came to 3. Besides, the inhibition in vivo at 5 mg/kg in data set [4] was determined as 5%. For the same molecule, in data set [4] (rat, in vivo), the “Bradycardic effects, in words” value was “absence of bradycardia”. Also, in data set [2], the inhibition in vivo at 100 mg/kg was 27%. For the same molecule, the “Antihypertensive activity, onset / comparison in words” value in data set [2] (p.o.) was “Mild, rather slow onset”. Besides, the inhibition in vivo at 50 mg/kg in data set [5] amounted to 25%.
For `NNc1nncc2ccccc12` [hydralazine, reference compound], the ED100 in data set [2] turned out to be 2.5 mg/kg.
Regarding `Cc1cccc(C)c1OCC(C)N` (stereo not shown) [mexilitine, reference compound], in data set [1] (mice, reference compounds), the ED100 worked out at 50 mg/kg.
Turning to `CC1(C)CCCC(C)(C)N1CC1=CC(=O)N(c2cccc(SC(F)(F)F)c2)C1` [Compound 2, N-[3'-trifluoromethylthiophenyl]-4-[2",2",6",6"tetramethylpiperidino]methylpyrrolid-3-en-2-one], in data set [6], the “Acute toxicity / toxic effects” value is “apparent absence” and the “Autonomic effect / autonomic inhibition” value was “apparent absence of autonomic effect”. Also, the inhibition in vivo at 200 mg/kg in data set [7] turned out to be 0%. Further, the “A = Antiarrythmic” value in data set [1] was 3. For the same molecule, the inhibition in vivo at 5 mg/kg in data set [4] was 6%. In data set [2], the inhibition in vivo at 100 mg/kg is 14%. In data set [5], the inhibition in vivo at 50 mg/kg was determined as 38%.
For the molecule `Cc1ccc(N(CC2=NCCN2)c2cccc(O)c2)cc1` [phentolamine, reference compound], in data set [2] (SHR, reference compounds), the ED100 came to 25 mg/kg.
With `C=CC1CN2CCC1CC2C(O)c1ccnc2ccc(OC)cc12` (stereo not shown) [qunidine, reference compound], in data set [1], the ED100 was 100 mg/kg.
Regarding `CCn1c2c(c3ccccc31)CCSC2(C)CCN(C)C` (stereo not shown) [tandamine], the ED100 in data set [3] was greater than 50 mg/kg.
As for `CC(C)NCC(O)COc1cccc2[nH]ccc12` (stereo not shown) [pindolol, reference compound], the ED100 in data set [1] worked out at 50 mg/kg.
For `CS(=O)(=O)c1ccc(-c2cn3ccccc3n2)cc1` [zolimidine, reference compound], in data set [5] (rats, reference compounds), the ED100 is greater than 100 mg/kg.
For `CC1(C)CCCC(C)(C)N1CC1=CC(=O)N(c2cc(C(F)(F)F)cc(C(F)(F)F)c2)C1` [Compound 3], the “Autonomic effect / autonomic inhibition” value in data set [6] is given as “No evidence of autonomic inhibition”. Moreover, the inhibition in vivo at 200 mg/kg in data set [7] amounted to 0%. Moreover, in data set [1], the “A = Antiarrythmic” value is 3. Also, the inhibition in vivo at 5 mg/kg in data set [4] was found to be 14%. In addition, the inhibition in vivo at 100 mg/kg in data set [2] turned out to be 32%. Besides, in data set [2] (p.o.), the “Antihypertensive activity, duration” value is recorded as “perhaps of long duration”; the “Antihypertensive activity, onset / comparison in words” value is reported as “somewhat slow in onset”; the “Dose with borderline antihypertensive result” value turned out to be 10 mg/kg. For the same molecule, the inhibition in vivo at 50 mg/kg in data set [5] is 38%.
`CC1(C)CCCC(C)(C)N1CC1=CC(=O)N(c2cccc(Br)c2)C1` [Compound 14]: in data set [7], the inhibition in vivo at 200 mg/kg turned out to be 5%. Further, in data set [1], the “A = Antiarrythmic” value is listed as 3. For the same molecule, the inhibition in vivo at 5 mg/kg in data set [4] amounted to 0%. In data set [2], the inhibition in vivo at 100 mg/kg was 4%. Also, in data set [5], the inhibition in vivo at 50 mg/kg was determined as 50% and the “Antiulcer effect, in words” value is “activity appears to be weaker than with Compound 13”.
`CSc1ccc2c(c1)N(CCC1CCCCN1C)c1ccccc1S2` (stereo not shown) [thioridazine]: in data set [3], the ED100 amounted to 10 mg/kg.
As to `COc1cc2nc(N3CCN(C(=O)c4ccco4)CC3)nc(N)c2cc1OC` [prazosin, reference compound], in data set [2] (SHR, reference compounds), the ED100 is 1 mg/kg.
Turning to `Clc1cccc(Cl)c1N=C1NCCN1` [clonidine, reference compound], the ED100 is 0.5 mg/kg in data set [4] and less than 5 mg/kg in data set [2].
Turning to `CC1(C)[C@@H](OC(=O)CCC(=O)O)CC[C@]2(C)[C@H]3C(=O)C=C4[C@@H]5C[C@@](C)(C(=O)O)CC[C@]5(C)CC[C@@]4(C)[C@]3(C)CC[C@@H]12` [carbenoxolone, reference compound], the ED100 in data set [5] (rats, reference compounds) is greater than 100 mg/kg.
As to `COc1ccc(CCN(C)CCCC(C#N)(c2ccc(OC)c(OC)c2)C(C)C)cc1OC` (stereo not shown) [verapamil, reference compound], in data set [1], the ED100 stood at 50 mg/kg.
Take `CNCCCN1c2ccccc2CCc2ccccc21` [desipramine]: the ED100 in data set [3] was greater than 25 mg/kg.
`CN(C)CCCN1c2ccccc2Sc2ccc(Cl)cc21` [chlorpromazine, reference compound]: the ED100 in data set [3] amounted to 2.5 mg/kg; in data set [5], 20 mg/kg.
Consider `CCN(CC)CC(=O)Nc1c(C)cccc1C` [lidocaine, reference compound], for which, in data set [1], the ED100 was 50 mg/kg.
As for `CCOC(=O)C(C)(C)Oc1ccc(Cl)cc1` [clofibrate, reference compound], the ED100 in data set [7] (po, reference compounds, read-out: ED-100, hypocholesterolemic) was 400 mg/kg.
As to `CCN(CC)CCOC(=O)c1ccc(N)cc1` [procaine, reference compound], in data set [1], the ED100 is 100 mg/kg.
`CC(C)N(CCC(C(N)=O)(c1ccccc1)c1ccccn1)C(C)C` (stereo not shown) [disopyramide, reference compound]: the ED100 in data set [1] (mice, reference compounds) was determined as 50 mg/kg.
As to `C[C@](N)(Cc1ccc(O)c(O)c1)C(=O)O` [methyldopa, reference compound], in data set [2] (SHR, reference compounds), the ED100 came to 50 mg/kg.
Regarding `COc1ccc([C@@H]2Sc3ccccc3N(CCN(C)C)C(=O)[C@@H]2OC(C)=O)cc1` [diltiazem, reference compound], the ED100 in data set [1] (mice, reference compounds) was 50 mg/kg; in data set [4] it was 10 mg/kg.
Take `CCN1CCCC1CNC(=O)c1cc(S(N)(=O)=O)ccc1OC` (stereo not shown) [sulpiride]: in data set [3], the ED100 is greater than 100 mg/kg.
For the molecule `CCN(CC)CCNC(=O)c1cc(Cl)c(N)cc1OC` [metoclopramide], the ED100 in data set [3] was greater than 100 mg/kg.
As for `N=C(N)NN=Cc1c(Cl)cccc1Cl` [quanabenz, reference compound], the ED100 was 2.5 mg/kg in data set [4] and less than 6 mg/kg in data set [2].
For `CC1(C)CCCC(C)(C)N1CC1=CC(=O)N(c2ccc(F)cc2)C1` [Compound 5], the “Autonomic effect / autonomic inhibition” value in data set [6] is listed as “absence of evidence of autonomic inhibition”. Besides, the inhibition in vivo at 200 mg/kg in data set [7] was 0%. In addition, the “A = Antiarrythmic” value in data set [1] was determined as 0. Moreover, the “Antiarrhythmic effect, in words” value in data set [1] (mouse, in vivo) was “noted at antihypertensive doses”. For the same molecule, the inhibition in vivo at 5 mg/kg in data set [4] came to 24%. The inhibition in vivo at 100 mg/kg in data set [2] turned out to be 26%. Further, the “Dose with borderline antihypertensive result” value in data set [2] (p.o.) was 5 mg/kg. In addition, in data set [5], the inhibition in vivo at 50 mg/kg was 75% and the “Antiulcer effect, in words” value is “noted at antihypertensive doses”.
Regarding `CC(CCc1ccccc1)NCC(O)c1ccc(O)c(C(N)=O)c1` (stereo not shown) [labetalol, reference compound], the ED100 in data set [2] (SHR, reference compounds) came out at 50 mg/kg.
`O=C(CCCN1CCC(O)(c2ccc(Cl)cc2)CC1)c1ccc(F)cc1` [haloperidol]: the ED100 in data set [3] is 10 mg/kg.
